What all share (experiment): NCI-60 cell line screen, 48 h
The subject of assay [1] is COLO 205 colon.
The test system of assay [2] is RXF 393 renal.
The subject of assay [3] is NCI-H23 lung.
The subject of assay [4] is HOP-62 NSCLC.
Assay [5] has as its system IGROV1 ovarian.
Assay [6] has as its system SR leukemia.
Assay [7] has as its system HOP-92 NSCLC.
Assay [8] concerns UACC-62 melanoma.
Assay [9] deals with MDA-MB-435.
Assay [10] has as its system M14 melanoma.

SMILES strings stand for the structures.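 Method: 48-hour compound exposure of cells in 96-well plates, five concentrations, linear interpolation of endpoints. GI50: concentration for 50% inhibition of growth. TGI: concentration producing complete growth inhibition.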

As to `CCCOC(=O)CCC(NC(=O)c1ccc(Nc2nc3ccccc3nc2-c2cccs2)cc1)C(=O)OCCC` (centres undefined), the TGI in [1], in assay [2], in assay [3], in [4], in assay [5] and in assay [6] was greater than 100 µM each time. The TGI in assay [7] and in assay [8] was greater than 100 µM throughout.
As for `O=C1c2ccccc2CC12Cc1ccc3c(c1C2=O)CCCC3` (centres undefined), the TGI in assay [9] was greater than 100 µM; in assay [1], greater than 100 µM; in assay [10], greater than 100 µM; in [2], 23.9 µM; in assay [4], greater than 100 µM; in [5], greater than 100 µM. For the same compound, the TGI in assay [6] was 6.56 µM; in assay [8] it was greater than 100 µM.
Turning to `c1ccc(-c2cc(-c3ccccc3)nc(-c3ccncc3)c2)cc1`, the TGI is greater than 100 µM in assay [9]; greater than 100 µM in assay [1]; greater than 100 µM in [10]; greater than 100 µM in assay [2]; greater than 100 µM in [3]; 55.4 µM in assay [4]. The TGI in assay [5], in assay [6] and in assay [8] was greater than 100 µM each time.
Turning to `CN(CCNC(=O)c1nn(C)c2c1Cc1ccccc1-2)CCNC(=O)c1nn(C)c2c1Cc1ccccc1-2`, the TGI was found to be 31.1 µM in assay [9]; 24.8 µM in assay [1]; 26.5 µM in assay [10]; 29.5 µM in [2]; 32.3 µM in [3]; 34.2 µM in assay [4]. Also, the values for the TGI in assay [5], in assay [7] and in assay [8] were 27.5 µM, 29.3 µM and 28.7 µM, respectively.
On to `O=C1CC2(CCN(Cc3ccccc3)CC2)C(=O)N1N1CCCCC1`, for which the TGI in assay [9], in assay [1], in assay [10], in [2], in assay [3] and in assay [4] was greater than 100 µM in each case. Further, the TGI in assay [5] and in [8] was greater than 100 µM each time.
With `COC1=CC(=O)[C@@]2(C)C(C)[C@H](c3ccccc3)[C@H]2C1=O` (some centres undefined), the TGI in assay [1], in [10], in [2], in assay [3], in assay [4] and in assay [5] was greater than 100 µM in each case. Besides, the TGI in assay [6], in assay [7] and in [8] was greater than 100 µM throughout.
Take `O=S(c1ccc(O)cc1)c1ccc(O)cc1`: the TGI in assay [1], in assay [10], in assay [2], in assay [3], in assay [4] and in assay [5] was greater than 100 µM each time. The TGI in assay [7] and in assay [8] was greater than 100 µM in each case.
Turning to `Cc1cc2nc3c(N)nn(CCCN(C)C)c3nc2cc1C`, the TGI in assay [9], in [1], in assay [10], in [2], in assay [3] and in [4] was greater than 100 µM in each case. This compound also yielded a TGI in [8] greater than 100 µM.
Take `CC(=O)OC1CCC2(C)C(CCC3C2CCC2(C)C(c4ccc(=O)oc4)C(OC(C)=O)CC32O)C1` (centres undefined): the TGI in [1] amounted to 0.162 µM; in [2] it was 0.0128 µM; in assay [3], 0.0296 µM; in assay [4], 0.0331 µM; in assay [5], 0.169 µM; in [7] it was 0.0721 µM. This compound returned a TGI in assay [8] of 0.0506 µM.
Regarding `C=CC[PH+](c1ccccc1)c1ccccc1.C=CC[PH+](c1ccccc1)c1ccccc1.[Pt+2].[S-]c1nc2ccccc2[nH]1.[S-]c1nc2ccccc2[nH]1`, the GI50 in assay [1] is 2.02 µM; in [2] it was 2.61 µM; in assay [6], 2.71 µM. The TGI in assay [1] was 6.56 µM; in [2], 7.06 µM; in assay [6] it was greater than 100 µM.
For `O=C1OCc2nc3c(c(-c4ccccc4C(F)(F)F)c21)C(=O)OC3`, the TGI in assay [1], in [10], in [2], in [3], in assay [4] and in assay [5] was greater than 100 µM in each case. Moreover, the TGI in assay [6], in assay [7] and in [8] was greater than 100 µM each time.
For the compound `Cc1nc2nnc(CCCCCCCCc3nnc4nc(C)[nH]n34)n2[nH]1`, the TGI in assay [9], in assay [1], in [10], in assay [2], in [3] and in assay [4] was greater than 100 µM throughout. Also, the TGI in assay [5] and in assay [7] was greater than 100 µM throughout.
With `O=C(O)COc1c(Cl)cc(Cl)c(C(c2c(Cl)cc(Cl)c(OCC(=O)O)c2Cl)C(Cl)(Cl)Cl)c1Cl`, the TGI is 78.2 µM in assay [9]; greater than 100 µM in assay [1]; 46.8 µM in assay [10]; 92.7 µM in assay [2]; 62.3 µM in assay [3]; 15.7 µM in [4]. Also, the TGI in assay [5] was greater than 100 µM; in [7], 62.4 µM; in assay [8], 37.9 µM.
Turning to `O=C1C=C2SC3C[C@@]24CC1(O)[N+]1=c2c4c(c(O)c4c2=C(C=N4)CC1)N3`, the TGI in assay [1] was 0.332 µM; in assay [2], 2.71 µM; in assay [3], 2.71 µM; in assay [4], 3.24 µM; in assay [5] it was 2.98 µM; in assay [7] it was 2.67 µM. This compound also displayed a TGI in assay [8] of 1.51 µM.
On to `COc1ccc(Cl)cc1NC(=O)O/N=C(\Cl)C(C)C`, for which the TGI in assay [9] came out at 47.6 µM; in assay [1] it was 3.5 µM; in assay [10], 13 µM; in assay [2], 17.4 µM; in assay [3] it was 47.7 µM; in assay [4], 35.2 µM. Moreover, the TGI in assay [5] turned out to be 27.1 µM; in [7], 3.9 µM; in assay [8] it was 32.1 µM.
For `CN1N=C(c2ccncc2)OC1c1ccc(C(F)(F)F)cc1` (centres undefined), the TGI in [9], in assay [1], in assay [10], in assay [2], in assay [3] and in [4] was greater than 100 µM throughout. Moreover, the TGI in [5] and in assay [8] was greater than 100 µM in each case.

These data come from PubChem BioAssay (NCI).
